Laboratory results: article PMC6263154 (Bioorganic & medicinal chemistry letters, 2018)

Legend:
[1] = tested on: CYP2B6, CYP2C8, CYP2C9, CYP2C19, CYP2D6, CYP3A4; assay: CYP inhibition, in vitro panel of six common isoforms; type: biochemical; settings: human
[2] = tested on: mmpL3; settings: in both Mabs and Mtb; cited from earlier work
[3] = Cytotoxicity towards HepG2 cell line; type: cell-based; settings: human, HepG2 cells
[4] = target: T1, CYP2B6 (Homo sapiens, UniProt P20813); assay: CYP inhibition, CYP2B6; type: biochemical
T1 sequence (P20813 1-491): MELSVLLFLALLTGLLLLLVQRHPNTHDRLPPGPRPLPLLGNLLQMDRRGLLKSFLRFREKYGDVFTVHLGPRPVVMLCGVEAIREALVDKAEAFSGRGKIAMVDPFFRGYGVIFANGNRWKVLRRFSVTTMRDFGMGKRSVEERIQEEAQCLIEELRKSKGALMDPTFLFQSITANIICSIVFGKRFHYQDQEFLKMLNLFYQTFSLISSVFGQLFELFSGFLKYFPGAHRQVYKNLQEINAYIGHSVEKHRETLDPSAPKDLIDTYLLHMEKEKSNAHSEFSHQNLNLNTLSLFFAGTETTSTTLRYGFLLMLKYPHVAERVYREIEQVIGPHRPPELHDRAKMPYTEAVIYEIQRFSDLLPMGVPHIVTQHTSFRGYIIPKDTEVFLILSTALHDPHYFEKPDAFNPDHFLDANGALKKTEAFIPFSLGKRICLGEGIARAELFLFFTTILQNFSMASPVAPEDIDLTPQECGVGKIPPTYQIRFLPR

[5] = tested on: Mycobacterium avium complex; assay: MIC against Mycobacterium avium complex; type: cell-based; settings: MAC; listed as CRS400393
[6] = target: CYP3A4 (Homo sapiens, UniProt P08684); assay: CYP inhibition, CYP3A4; type: biochemical
[7] = tested on: Mabs; settings: for 3 days; cited from earlier work
[8] = design: species or system mice; settings: mouse, in vivo
[9] = tested on: M. abscessus infection; settings: mouse model of M. abscessus infection, intrapulmonary delivery; cited from earlier work

Sequence of CYP3A4 (P08684 whole entry): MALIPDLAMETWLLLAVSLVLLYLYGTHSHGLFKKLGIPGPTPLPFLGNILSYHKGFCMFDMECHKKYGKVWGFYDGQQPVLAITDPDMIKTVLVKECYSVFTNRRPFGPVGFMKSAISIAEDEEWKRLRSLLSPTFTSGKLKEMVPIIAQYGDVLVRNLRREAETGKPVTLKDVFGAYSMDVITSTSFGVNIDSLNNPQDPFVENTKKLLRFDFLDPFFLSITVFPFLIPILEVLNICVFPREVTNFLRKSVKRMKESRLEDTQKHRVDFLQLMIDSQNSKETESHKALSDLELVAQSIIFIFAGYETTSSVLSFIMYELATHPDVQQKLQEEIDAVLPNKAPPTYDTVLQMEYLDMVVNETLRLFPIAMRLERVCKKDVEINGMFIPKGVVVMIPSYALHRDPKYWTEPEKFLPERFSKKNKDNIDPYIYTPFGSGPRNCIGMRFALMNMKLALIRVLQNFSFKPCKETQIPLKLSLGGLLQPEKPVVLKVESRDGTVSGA

Compound	effect on transfer of mycolic acids to cell envelope acceptors [2]	inhibition at 10 µM [4]	inhibition at 10 µM [6]	further results
CC1CC(C(=O)Nc2nc3ccc(OC(F)(F)F)cc3s2)CC(C)(C)C1 (stereo not drawn) [Compound 32]	affect the transfer of mycolic acids	–	–	IC50 [1]: > 20 µM; IC50 [3]: > 100 µM
CC12CCCC(C(=O)Nc3nc4cc(Cl)cc(Cl)c4s3)(CCC1)C2 [Compound 43]	–	≤ 50%	≤ 50%	MIC against Mycobacterium avium complex [5]: 1 to 2 µg/mL; time kill: effect against Mabs [7]: bacteriostatic
CC1CC(C(=O)Nc2nc3c(F)cc(F)cc3s2)CC(C)(C)C1 (stereo not drawn) [Compound 18]	affect the transfer of mycolic acids	–	–	single dose toxicity observation [8]: All mice appeared normal with no abnormal behavior observed
CC12CCCC(C(=O)Nc3nc4ccc(OC(F)(F)F)cc4s3)(CCC1)C2 [Compound 52]	–	≤ 50%	≤ 50%	–
CC12CC3CC(C)(C1)CC(C(=O)Nc1nc4ccc(OC(F)(F)F)cc4s1)(C3)C2 [CRS400226]	–	–	–	in vivo efficacy [9]: demonstrated in vivo efficacy
